The target in assay [1] is T1, cytochrome bc1 complex (ubiquinol:cytochrome c oxidoreductase; respiratory complex III) (Plasmodium falciparum, UniProt Q02768).
T1 sequence (Q02768 1-376): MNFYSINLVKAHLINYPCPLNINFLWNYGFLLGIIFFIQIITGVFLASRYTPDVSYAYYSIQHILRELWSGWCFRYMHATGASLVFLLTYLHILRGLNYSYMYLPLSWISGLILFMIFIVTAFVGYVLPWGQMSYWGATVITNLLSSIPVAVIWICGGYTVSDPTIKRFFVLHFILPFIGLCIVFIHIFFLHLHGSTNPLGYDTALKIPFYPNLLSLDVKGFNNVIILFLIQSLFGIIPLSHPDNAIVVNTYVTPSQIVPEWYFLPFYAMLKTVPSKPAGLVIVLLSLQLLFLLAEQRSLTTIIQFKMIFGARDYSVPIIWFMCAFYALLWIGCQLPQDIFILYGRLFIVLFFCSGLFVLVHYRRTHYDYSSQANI
Format: biochemical.

In assay [2] the target is cytochrome bc1 complex (ubiquinol:cytochrome c oxidoreductase; respiratory complex III) (Homo sapiens, UniProt P00156). Format: biochemical.
Chain of cytochrome bc1 complex (ubiquinol:cytochrome c oxidoreductase; respiratory complex III) (Homo sapiens, UniProt P00156) (P00156 whole entry, one chain of several): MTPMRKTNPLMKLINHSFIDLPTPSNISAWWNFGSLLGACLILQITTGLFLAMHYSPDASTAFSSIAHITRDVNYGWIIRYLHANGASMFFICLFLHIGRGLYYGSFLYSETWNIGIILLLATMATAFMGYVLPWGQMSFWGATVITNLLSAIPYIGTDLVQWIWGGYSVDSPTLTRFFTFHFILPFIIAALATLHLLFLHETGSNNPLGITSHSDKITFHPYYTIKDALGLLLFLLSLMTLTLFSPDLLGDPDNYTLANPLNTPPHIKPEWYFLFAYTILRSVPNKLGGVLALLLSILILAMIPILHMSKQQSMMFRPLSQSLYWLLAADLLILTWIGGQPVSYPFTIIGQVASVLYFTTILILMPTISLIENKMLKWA

For the compound `CCCCCCCCCCOc1cc2c(O)c(C(=O)OCC)cnc2cc1OCC` [Decoquinate], the IC50 in assay [1] came to 0.002 ± 0.0005 µM.
`O=C1C(O)=C([C@H]2CC[C@H](c3ccc(Cl)cc3)CC2)C(=O)c2ccccc21` [Atovaquone] came in with an IC50 in assay [2] of 0.327 ± 0.03 µM.

For the origin of these results see publication PMC3308910 (2012).
